Reference: ChEMBL document CHEMBL3217584, “Pharmacokinetics of bendamustine in the central nervous system: chemoinformatic screening followed by validation in a murine model” (Medchemcomm, 2012)

Assays:
[1] = tested on: Brain; test: Drug uptake in C57BL/6J mouse brain at 70 mg/kg, ip measured at 20 to 40 mins by CE-UV analysis; assay type: ADME, organism-based; set-up: dose 70 mg/kg, route intraperitoneal; conditions: in vivo
[2] = AUC in C57BL/6J mouse serum at 70 mg/kg, ip by CE-UV analysis; assay type: ADME, organism-based, Plasma; set-up: dose 70 mg/kg, route intraperitoneal
[3] = Ratio of AUC in C57BL/6J mouse CSF to AUC in C57BL/6J mouse serum; assay type: ADME
[4] = Half life in C57BL/6J mouse serum at 70 mg/kg, ip by CE-UV analysis; assay type: ADME, organism-based; set-up: dose 70 mg/kg, route intraperitoneal
[5] = AUC in C57BL/6J mouse CSF at 70 mg/kg, ip by CE-UV analysis; assay type: ADME, organism-based; set-up: dose 70 mg/kg, route intraperitoneal
[6] = Cmax in C57BL/6J mouse CSF at 70 mg/kg, ip measured at 20 to 40 mins by CE-UV analysis; assay type: ADME, organism-based, Cerebrospinal fluid; set-up: dose 70 mg/kg, route intraperitoneal
[7] = Drug uptake in C57BL/6J mouse eye at 70 mg/kg, ip measured at 20 to 40 mins by CE-UV analysis; assay type: ADME, organism-based; set-up: dose 70 mg/kg, route intraperitoneal; conditions: in vivo

In the case of `Cn1c(CCCC(=O)O)nc2cc(N(CCCl)CCCl)ccc21` [BENDAMUSTINE], the Drug uptake [1] is reported as “Active”, the AUC [2] is reported as 575 µM·h and the “Ratio AUC” value [3] is reported as 35%. For the same compound, the half-life [4] was 40 min, the AUC [5] was 210 µM·h and the Cmax [6] was 393 µM. The Drug uptake [7] was “Active”.
